Assay results as given in PMC13224100, “Esterase-Responsive Mitochondria-Targeted Hydropersulfide Donors Mitigate Doxorubicin Cardiotoxicity While Preserving Anticancer Activity” (Angewandte Chemie (International ed. in English), 2025).

Columns and labels:
Assay type in all cases: cell-based
H9c2 cells [1] = experiment: Mitochondrial membrane potential (TMRM) under DOX; conditions: donor 25 μM, 4 h pretreatment, DOX 5 μM 24 h
Protocol: (§1) Figure 6. a) Basal sulfane sulfur (SS) levels in H9c2 cardiomyocyte, MDA-MB-468, MCF-7, and HepG2 cell lines as detected by SSP4 fluorescence. b) Representative images and c) basal levels of mitochondrial membrane potential (MMP) in H9c2 and cancer cells (MDA-MB-468, MCF-7, and HepG2). d) Impact of APT-1 (25 μM) or APT-1-TPP (25 μM) on MMP in DOX (5 μM)-treated (d) H9c2 and e) HepG2 cells. Impact of APT-1 (25 μM) and APT-1-TPP (25 μM) on ATP levels in DOX (5 μM)-treated f) H9c2 and g) HepG2 cells. Results are expressed as mean ± SEM, n = 3–6; *P < 0.05, **P < 0.01, ***P < 0.001, ****P < 0.0001. Significances in (a) and (c) are presented with respect to H9c2 cells.
(§2) We then examined how RSSH donors influence MMP during DOX exposure. As expected, DOX alone induced mitochondrial depolarization in H9c2 cells, reducing MMP to ca. 50% of control (Figure 6d). […] To complement these observations, we quantified intracellular ATP levels as a functional readout of mitochondrial activity. […]
(§3) Mitochondrial Membrane Potential Measurements
(§4) Mitochondrial membrane potential was measured using Image-iT™ TMRM Reagent (Cat#I34361, Invitrogen, USA) according to the manufacturer's protocols. […]
(§5) The cells were incubated for an additional 24 h. After completion of treatment, cells were washed with a warm clear DMEM medium (with 10% FBS) and incubated in culture media containing TMRM (working solution 100 nM) for 30 min at 37 °C. Cells were then washed with a warm clear FBS-free DMEM medium (3 times) before imaging. Images were obtained with Zeiss LSM 800 with AiryScan Confocal (λex = 548 nm, λem = 573 nm). During each experiment, 6 field images were obtained for each experimental group. Images were analyzed using Image J software, and all cells in each image were selected for fluorescence intensity measurement (cell-free space was also measured as blank). H9c2 signal intensity was set to 100% and signal intensity for all the other cell lines was shown as a percentage of that of H9c2.
(§6) The experiments were independently repeated three times (n = 3 biological replicates). Data are […]
(§7) Figure S24. Representative TMRM images for mitochondrial membrane potential (MMP) in H9c2 and HepG2 cells with APT-1 and APT-1-TPP treatment under DOX stress. Ctl = vehicle (medium with 0.01% […]
(§8) (1 picture or pasted object on this page, not shown here)

HepG2 cells = experiment: Mitochondrial membrane potential (TMRM) under DOX; conditions: donor 25 μM, 4 h pretreatment, DOX 5 μM 24 h
Protocol: as §1, §2, §3, §4, §5, §6, §7, §8

H9c2 cells [2] = experiment: Cytoprotection against DOX-induced toxicity, CCK-8 assay; conditions: 4 h pretreatment, then 24 h co-treatment with DOX 5 μM
Protocol: We evaluated the cytoprotective effects of RSSH precursors against DOX-induced cardiotoxicity in H9c2 cardiomyoblasts. First, we assessed the cytotoxicity of the RSSH donors (AST-2, APT-1, AST-2-TPP, and APT-1-TPP) using the CCK-8 assay.[24] […] To evaluate cytoprotection, H9c2 cells were pretreated with RSSH donors for 4 h, followed by 24 h co-treatment with DOX (5 μM). As expected, DOX alone reduced cell viability to ca. 50% (Figure 4a). […] Although both compounds were protective, no enhancement of potency was observed upon TPP conjugation. […] A distinctive feature of our study is the direct comparison between mitochondria-targeted and non-targeted RSSH donors. […] TPP conjugation only modestly enhances the cytoprotective effects of RSSH donors under our experimental conditions. This outcome may reflect the intrinsic high efficacy of non-targeted RSSH donors, thereby limiting the additional benefit of mitochondrial targeting.
Figure 4. Protective effects of RSSH donors against DOX-induced cytotoxicity in H9c2 cells. Cells were pretreated with RSSH donors for 4 h, followed by exposure to DOX (5 μM) for an additional 24 h. Cell viability was assessed using the cell counting Kit-8 (CCK-8) assay. Results are expressed as mean ± SEM, n = 3; *P < 0.05, **P < 0.01, ***P < 0.001, ****P < 0.0001. Ctl = vehicle-treated group (0.01% DMSO in medium). […]
Cytoprotective Effects of RSSH Donors against Doxorubicin Toxicity
Cytoprotective studies were performed as previously described.[8] Briefly, H9c2 cells, HepG2 cells, MDA-MB-468 cells, and MCF-7 cells were seeded at a density of 7 x 10^3 cells/well. […] Additionally, in the vehicle control group, cells were treated with medium (DMEM with 10% FBS) containing 0.01% DMSO only. The cells were then further incubated for an additional 4 h before being treated with DOX (10 μL/well, with final concentration of 5 μM). After a 24 h co-incubation with DOX, each well was carefully washed three times with PBS (pH 7.4) and 100 μL o f F B S-free medium containing 10% v/v CCK-8 (Dojindo) was added. The plates were then incubated for 1-2 h before measuring absorbance at […]
The relative % cell viability was calculated as 100 times the ratio of Abs450 (RSSH donor + DOX-exposed) to Abs450 (vehicle, non-DOX-exposed). Each treatment condition was performed in 6 technical replicates per biological replicate, and the experiment was independently repeated three times (n = 3 biological replicates). Data are presented as mean ± SEM. […]

CC(=O)NC(C(=O)N(C)CCC[P+](c1ccccc1)(c1ccccc1)c1ccccc1)C(C)(C)SSC(=O)N(C)CCOC(C)=O (stereo not drawn) [APT-1-TPP]
effect on DOX-induced loss of MMP (H9c2 cells [1]): conferred protection, though to a slightly lesser extent | effect on DOX-induced mitochondrial depolarization (HepG2 cells): further exacerbated MMP loss | protection against DOX-induced cytotoxicity (H9c2 cells [2]): dose-dependent cytoprotective effect

COC(=O)C(NC(C)=O)C(C)(C)SSC(=O)N(C)CCOC(C)=O (stereo not drawn) [APT-1]
effect on DOX-induced loss of MMP (H9c2 cells [1]): preserved MMP | effect on DOX-induced mitochondrial depolarization (HepG2 cells): neither donor prevented DOX-induced mitochondrial depolarization | protection against DOX-induced cytotoxicity (H9c2 cells [2]): dose-dependent cytoprotective effect

COC(=O)SSC(C)(C)C(NC(C)=O)C(=O)N(C)CCC[P+](c1ccccc1)(c1ccccc1)c1ccccc1 (stereo not drawn) [AST-2-TPP]
concentration of maximal protection (H9c2 cells [2]): 25 µM | concentration with significant protective effects (H9c2 cells [2]): ≥ 1 µM | protection against DOX-induced cytotoxicity (H9c2 cells [2]): dose-dependent protection

COC(=O)SSC(C)(C)C(NC(C)=O)C(=O)OC (stereo not drawn) [AST-2]
concentration of maximal protection (H9c2 cells [2]): 25 µM | concentration with significant protective effects (H9c2 cells [2]): ≥ 1 µM | protection against DOX-induced cytotoxicity (H9c2 cells [2]): dose-dependent protection
